Usually IC50 stands for the midpoint of a concentration-inhibition curve. Low values mean greater potency, high ones weaker potency.

From patent EP4711365A1 (Shanghai Hansoh Biomedical Co., Ltd., priority 2023, dated 2024) come the findings set out here.

SMILES strings stand for the structures.

This experiment relates to Groα secretion by HT-29 cells. Description: Inhibition of Groα secretion by HT-29 cells stimulated with IL-17A (ELISA). It is filed as cell-based, Human. The following applies: IL-17A 30 ng/ml, Groα in supernatant. As for the experimental part: Test example 2 Assay for inhibitory effect of compounds of the present invention against Groα secretion by HT-29 cells
Experimental objective: to measure the inhibitory effect of the compounds against Groα secretion by HT-29 cells, thereby evaluating the inhibition of the compounds on IL-17A pathway.
Experimental method: A cell suspension at 50,000 cells/ml was prepared, and 200 µl of the cell suspension was added to each well of a 96-well plate, i.e., 10,000 cells/well. The plate was cultured overnight. In the 96-well V-bottom plate, 5 mM compound solution was serially diluted 3-fold using DMSO, and the compound from each well was diluted 100-fold using a complete culture medium. IL-17A protein (R&D, #BT7955-025/CF) with a stock concentration of 100 µg/ml was diluted 333.33-fold using a complete culture medium. The compound and IL-17A were mixed at a volume ratio of 1:1 and incubated at 37°C for 30 minutes. 50 µl of a mixture of the compound and IL-17A was added to cell wells, and the final concentration of IL-17A protein was 30 ng/ml.
The mixture was incubated in a 37°C, 5% CO2 cell culture incubator for 48 hours. The concentration of Groα in the supernatant was determined by ELISA method using Human Groα Valukin Elisa kit (Biotechne, # VAL139), and the absorbance intensity at 450 nm was measured using a microplate reader (PE, EnVision2105). Data were analysed using GraphPad Prism 8.3.0.
Experimental data processing method: Data were analysed using GraphPad Prism 8.3.0.
Inhibition rate% = [(average value of positive control wells - value of sample wells)/(average value of positive control wells - average value of negative control wells)] × 100%, where the sample wells are wells containing cells plus compounds at different concentration gradients, the positive control wells are wells containing cells plus IL-17A, and the negative control wells are wells containing culture medium plus IL-17A.
Curve fitting: The IC50 value was obtained by curve fitting based on the inhibition rate (%) at each concentration using the log(inhibitor) vs. responseVariable slope (four parameters) in GraphPad Prism 6.0, and the calculation equation was Y = Bottom + (Top-Bottom)/(1+10^((LogIC50-X)*HillSlope)).

In the case of `[2H]C1([2H])NC(=O)N([C@H](COC)c2cnc(NC(=O)[C@@H](NC(=O)c3ccnn3C(C)C)C3CCC(F)(F)CC3)s2)C([2H])([2H])C1(F)F` [Example 259, N-((S)-2-((5-((R)-1-(5,5-difluoro-2-carbonyltetrahydropyrimidin-1(2H)-yl-4,4,6,6-d4)-2-methoxyethyl)thiazol-2-yl)amino)-1-(4,4-difluorocyclohexyl)-2-carbonylethyl)-1-isopropyl-1H-pyrazole-5-carboxamide], the IC50 (Homo sapiens, HT-29, 48 h) is 5.5 nM.

As to `COC[C@H](c1cnc(NC(=O)[C@@H](NC(=O)c2ccnn2C(C)C)[C@H]2CC[C@H](C)CC2)s1)N1CC(F)(F)CNC1=O` [Example 327], it took 2.5 nM to reach half-maximal inhibition (Homo sapiens, 48 hours) (IC50).

For the molecule `CCc1nonc1C(=O)N[C@H](C(=O)Nc1ncc(C(C2CCS(=O)(=O)CC2)n2cc(Cl)ccc2=O)s1)[C@H]1CC[C@H](C)CC1` (stereo partly drawn) [Example 540-1], for the setting “Homo sapiens, HT-29, 48 h”, the midpoint of inhibition, the IC50, lay at 8 nM.

With `COCCC(c1cnc(NC(=C=O)[C@@H](NC(=O)c2ccnn2C(C)C)C2CCCCC2)s1)N1C[C@@H](C(F)(F)F)NC1=C=O` (stereo partly drawn) [Example 564, N-((1S)-1-cyclohexyl-2-((5-(3-methoxy-1-((S)-2-carbonyl-4-(trifluoromethyl)imidazolidin-1-yl)propyl)thiazol-2-yl)amino)-2-carbonylethyl)-1-isopropyl-1H-pyrazole-5-carboxamide], half-maximal inhibition (Homo sapiens, HT-29, 48 h) (IC50) required 5.9 nM.

As to `COC[C@H](c1cnc(NC(=O)[C@@H](NC(=O)c2ccnn2C(C)C)C2CCCCC2)s1)N1CC(F)(F)CNC1=O` [Example 565], half-maximal inhibition (Homo sapiens, HT-29, 48 h) (IC50) was put at 4 nM.

In the case of `[2H]C([2H])([2H])C([2H])([2H])n1nccc1C(=O)N[C@H](C(=O)Nc1ncc([C@@H](CN2CCOCC2)n2cc(Cl)ccc2=O)s1)[C@H]1CC[C@H](C)CC1` [Example 574], where the note is “Homo sapiens, HT-29, 48 h”, it took 5 nM to reach half-maximal inhibition (IC50).

`[2H]C([2H])([2H])C([2H])([2H])n1nccc1C(=O)N[C@H](C(=O)Nc1ncc(C(COC)n2cc(Cl)ccc2=O)s1)[C@H]1CC[C@H](C)CC1` (stereo partly drawn) [Example 586-1] yielded an IC50 (Homo sapiens, HT-29, 48 h) of 8.4 nM.

Turning to `CCn1nccc1C(=O)N[C@H](C(=O)Nc1ncc([C@@H](CN2CCC(OC)CC2)n2cc(Cl)ccc2=O)s1)[C@H]1CC[C@H](C)CC1` [Example 634], under “Homo sapiens, HT-29, 48 h”, the 50% inhibitory concentration (IC50) stood at 2.5 nM.

Take `CCn1nccc1C(=O)N[C@H](C(=O)Nc1ncc([C@@H](CN(C)C)n2cc(Cl)ccc2=O)s1)[C@H]1CC[C@H](C)CC1` [Example 644]: under “Homo sapiens, HT-29, 48 h”, half-maximal inhibition (IC50) was put at 3.8 nM.

On to `CCn1nccc1C(=O)NC(C(=O)Nc1ncc(C(CN2CCC(OC)C2)N2CC(F)(F)CCC2=O)s1)C1CCC(C)CC1` (stereo not drawn) [Example 648], for which, for the setting “Homo sapiens, HT-29, 48 h”, the 50% inhibitory concentration (IC50) was 9.6 nM.

Take `CCn1nccc1C(=O)NC(C(=O)Nc1ncc(C(CN2CCC(OC)C2)N2CC(F)(F)CCC2=O)s1)C1CCC(C)CC1` (stereo not drawn) [Example 650]: for the setting “48 hours”, the 50% inhibitory concentration (IC50) was found to be 6 nM.

For the setting “Homo sapiens, HT-29, 48 h”, `CCn1nccc1C(=O)N[C@H](C(=O)Nc1ncc([C@@H](CN2CCC(C(=O)O)CC2)n2cc(Cl)ccc2=O)s1)[C@H]1CC[C@H](C)CC1` [Example 663] showed an IC50 of 1.6 nM.

On to `CCn1nccc1C(=O)N[C@H](C(=O)Nc1ncc([C@@H](COC)n2cc(Cl)ccc2=O)s1)[C@H]1CC[C@H](C)CC1` [Example 689], for which, where the note is “Homo sapiens, HT-29, 48 h”, the IC50 worked out at 5.2 nM.

The molecule `C[C@H]1CC[C@H]([C@H](NC(=O)C2(F)CC2)C(=O)Nc2ncc([C@@H](CN3CC4CCC(C3)O4)N3CC(F)(F)CNC3=O)s2)CC1` [Example 743] had a 50% inhibitory concentration (IC50) (Homo sapiens, 48 hours) of 6 nM.

`C[C@H]1CC[C@H]([C@H](NC(=O)C2(F)CC2)C(=O)Nc2ncc([C@@H](CN3CCC(CF)CC3)N3CC(F)(F)CNC3=O)s2)CC1` [Example 767] registered a 50% inhibitory concentration (IC50) (Homo sapiens, HT-29, 48 h) of 7 nM.

`[2H]C([2H])([2H])OC1CCN(C[C@H](c2cnc(NC(=O)[C@@H](NC(=O)C3(F)CC3)[C@H]3CC[C@H](C)CC3)s2)N2CC(F)(F)CNC2=O)CC1` [Example 780] had a half-inhibitory concentration (IC50) (Homo sapiens, 48 hours) of 10 nM. This lies in the double-digit nanomolar range.

Consider `[2H]C([2H])([2H])C([2H])([2H])n1nccc1C(=O)N[C@H](C(=O)Nc1ncc([C@@H](CN2CCO[C@H](CF)C2)N2CC(F)(F)CCC2=O)s1)[C@H]1CC[C@H](C)CC1` [Example 820, N-((S)-2-((5-((R)-1-(5,5-difluoro-2-oxopiperidin-1-yl)-2-((S)-2-(fluoromethyl)morpholino)ethyl)thiazol-2-yl)amino)-1-((1r,4S)-4-methylcyclohexyl)-2-oxoethyl)-1-(ethyl-d5)-1H-pyrazole-5-carboxamide], for which the half-maximal inhibitory concentration (IC50) (Homo sapiens, HT-29, 48 h) was determined as 3 nM.

In turn, `[2H]C([2H])([2H])C([2H])([2H])n1nccc1C(=O)N[C@H](C(=O)Nc1ncc([C@@H](CN2C[C@H](C)OC[C@@H]2C)N2CC(F)(F)CCC2=O)s1)[C@H]1CC[C@H](C)CC1` [Example 860, N-((S)-2-((5-((R)-1-(5,5-difluoro-2-oxopiperidin-1-yl)-2-((2S,5S)-2,5-dimethylmorpholino)ethyl)thiazol-2-yl)amino)-1-((1r,4S)-4-methylcyclohexyl)-2-oxoethyl)-1-(ethyl-d5)-1H-pyrazole-5-carboxamide] had a 50% inhibitory concentration (IC50) (Homo sapiens, HT-29, 48 h) of 2 nM. Against the preceding molecule, the IC50 is about 1.5-fold lower.

Under “Homo sapiens, HT-29, 48 h”, `[2H]C([2H])([2H])C([2H])([2H])n1nccc1C(=O)N[C@H](C(=O)Nc1ncc([C@@H](CN2C[C@@H](C)OC[C@H]2C)N2CC(F)(F)CCC2=O)s1)[C@H]1CC[C@H](C)CC1` [Example 862, N-((S)-2-((5-((R)-1-(5,5-difluoro-2-oxopiperidin-1-yl)-2-((2R,5R)-2,5-dimethylmorpholino)ethyl)thiazol-2-yl)amino)-1-((1r,4S)-4-methylcyclohexyl)-2-oxoethyl)-1-(ethyl-d5)-1H-pyrazole-5-carboxamide] gave a 50% inhibitory concentration (IC50) of 2.7 nM. The IC50 values of the last two molecules are within 1.5-fold of each other.

The molecule `CCn1nccc1C(=O)N[C@H](C(=O)Nc1ncc([C@@H](CN2C[C@@H](C)OC[C@H]2C)N2CC(F)(F)CCC2=O)s1)[C@H]1CC[C@H](C)CC1` [Example 863] returned a half-inhibitory concentration (IC50) (Homo sapiens, HT-29, 48 h) of 3.2 nM.

Under “Homo sapiens, HT-29, 48 h”, `[2H]C([2H])([2H])C([2H])([2H])n1nccc1C(=O)N[C@H](C(=O)Nc1ncc([C@@H](CN2CCC(F)(F)CC2)N2CC(F)(F)CCC2=O)s1)[C@H]1CC[C@H](C)CC1` [Example 913] returned an IC50 of 3.5 nM. The IC50 values of the last two molecules are within 1.5-fold of each other.

As to `[2H]C([2H])([2H])C([2H])([2H])n1nccc1C(=O)N[C@H](C(=O)Nc1ncc([C@@H](CN2CCC(F)CC2)N2CC(F)(F)CCC2=O)s1)[C@H]1CC[C@H](C)CC1` [Example 919], the IC50 (Homo sapiens, HT-29, 48 h) was 4 nM. This IC50 and that of the molecule before are within 1.5-fold of each other.

`[2H]C([2H])([2H])C([2H])([2H])n1nccc1C(=O)NC(C(=O)Nc1ncc(C(CN2CCC3C(C2)C3(F)F)N2CC(F)(F)CCC2=O)s1)C1CCC(C)CC1` (stereo not drawn) [Example 970] had a 50% inhibitory concentration (IC50) (Homo sapiens, HT-29, 48 h) of 4 nM. In other words, the single-digit nanomolar range.

In the case of `[2H]C([2H])([2H])C([2H])([2H])n1nccc1C(=O)N[C@H](C(=O)Nc1ncc([C@@H](CN2CCC(=C(F)F)CC2)N2CC(F)(F)CCC2=O)s1)[C@H]1CC[C@H](C)CC1` [Example 980], for the setting “Homo sapiens, HT-29, 48 h”, the IC50 came out at 5 nM.

Consider `[2H]C([2H])([2H])OC1CCN(C[C@H](c2cnc(NC(=O)[C@@H](NC(=O)c3ccnn3C([2H])([2H])C([2H])([2H])[2H])[C@H]3CC[C@H](C)CC3)s2)N2CC(F)(F)CCC2=O)CC1` [Example 986], for which it took 9 nM to reach half-maximal inhibition (Homo sapiens, HT-29, 48 h) (IC50). Compared with the last molecule, the IC50 is about 1.8-fold higher.

Where the note is “Homo sapiens, HT-29, 48 h”, `[2H]C([2H])([2H])OC1(C)CCN(C[C@H](c2cnc(NC(=O)[C@@H](NC(=O)c3ccnn3C([2H])([2H])C([2H])([2H])[2H])[C@H]3CC[C@H](C)CC3)s2)N2CC(F)(F)CCC2=O)CC1` [Example 988] had an IC50 of 8.8 nM.

The molecule `C[C@H]1CC[C@H]([C@H](NC(=O)C2(F)CC2)C(=O)Nc2ncc([C@@H](CN3CCC4(CC3)CC4(F)F)N3CC(F)(F)CNC3=O)s2)CC1` [Example 1016] yielded an IC50 (Homo sapiens, HT-29, 48 h) of 2 nM.
